Measured values taken from US8563729B2, “Thienopyridone derivatives as AMP-activated protein kinase (AMPK) activators” (Merck Patent GmbH, priority 2008, dated 2013).

How the values were obtained:
[1] = ob/ob and db/db mice, 8 day AICAR administration; cited from earlier work
H-2 Kb cells = assay: Glucose uptake in H-2 Kb cells (in vitro cellular test); type: cell-based, mouse; settings: H-2 Kb cells differentiated in muscle, 4 hours incubation, 2-deoxy-D-[1,2 3H] glucose uptake 10 min
Method in brief: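 H-2 Kb tsA58 mouse cells were differentiated to muscle at 37° C without interferon-γ for 3 days, then exposed to compound for 4 h in 1 g/l glucose DMEM. Uptake of 3H-2-deoxyglucose over 10 min was measured by scintillation. Activity was taken as the compound concentration matching or exceeding uptake with insulin (170 nM), scored ≦10 or >10 micro Molar.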

[2] = target: T1, AMPK protein (recombinant α1β1γ2) (Homo sapiens, UniProt Q13131+Q9Y478); assay: AMPK enzymatic activity (Delfia, AMARA peptide substrate); type: biochemical; settings: compound 30 μM vs AMP 30 μM; 125 μM ATP; ratio 90% or higher = direct activator
T1 construct: made in house; host or cells: E. coli
T1 sequence (Q13131 whole entry): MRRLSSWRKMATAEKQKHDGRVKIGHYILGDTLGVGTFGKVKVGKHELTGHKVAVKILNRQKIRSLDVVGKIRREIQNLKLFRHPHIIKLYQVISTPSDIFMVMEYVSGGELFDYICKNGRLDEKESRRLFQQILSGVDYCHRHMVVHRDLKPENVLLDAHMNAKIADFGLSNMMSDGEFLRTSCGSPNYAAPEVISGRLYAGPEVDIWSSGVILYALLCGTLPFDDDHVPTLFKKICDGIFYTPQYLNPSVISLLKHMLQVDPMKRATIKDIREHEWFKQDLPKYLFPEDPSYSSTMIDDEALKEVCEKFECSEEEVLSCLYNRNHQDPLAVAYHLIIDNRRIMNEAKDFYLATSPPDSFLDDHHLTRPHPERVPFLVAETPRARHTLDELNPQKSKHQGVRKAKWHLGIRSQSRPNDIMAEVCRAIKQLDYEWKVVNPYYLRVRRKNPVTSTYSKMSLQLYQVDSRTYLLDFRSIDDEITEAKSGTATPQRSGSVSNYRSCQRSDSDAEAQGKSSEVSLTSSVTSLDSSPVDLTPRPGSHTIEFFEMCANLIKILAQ
T1 sequence (Q9Y478 whole entry): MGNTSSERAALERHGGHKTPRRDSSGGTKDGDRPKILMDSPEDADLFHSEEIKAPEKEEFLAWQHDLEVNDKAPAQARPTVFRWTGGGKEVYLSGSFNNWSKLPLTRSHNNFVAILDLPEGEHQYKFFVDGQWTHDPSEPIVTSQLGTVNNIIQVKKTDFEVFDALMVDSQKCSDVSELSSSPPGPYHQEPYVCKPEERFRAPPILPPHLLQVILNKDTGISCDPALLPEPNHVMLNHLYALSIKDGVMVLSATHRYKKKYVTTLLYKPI
T1 sequence (Q9UGJ0 whole entry partner): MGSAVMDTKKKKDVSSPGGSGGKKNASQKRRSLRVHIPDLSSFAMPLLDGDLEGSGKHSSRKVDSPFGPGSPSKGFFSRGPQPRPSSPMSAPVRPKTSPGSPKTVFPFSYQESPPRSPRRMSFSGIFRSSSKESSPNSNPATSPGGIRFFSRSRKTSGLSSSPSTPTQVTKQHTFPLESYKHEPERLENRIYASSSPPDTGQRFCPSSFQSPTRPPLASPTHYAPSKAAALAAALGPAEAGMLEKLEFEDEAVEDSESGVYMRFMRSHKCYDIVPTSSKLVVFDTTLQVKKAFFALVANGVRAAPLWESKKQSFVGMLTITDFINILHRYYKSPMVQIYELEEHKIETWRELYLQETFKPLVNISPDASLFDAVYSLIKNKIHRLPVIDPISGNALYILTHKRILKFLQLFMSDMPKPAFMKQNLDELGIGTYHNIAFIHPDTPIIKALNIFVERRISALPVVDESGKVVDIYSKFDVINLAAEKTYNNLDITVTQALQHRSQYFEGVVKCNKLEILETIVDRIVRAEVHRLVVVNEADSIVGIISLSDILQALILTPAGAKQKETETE
Method in brief: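 Human α1β1γ2 AMPK expressed in E. coli, reactivated in vitro by LKB1, assayed in 50 mM Hepes pH 7.4 with 125 μM ATP and AMARA peptide for 30 min at room temperature; phosphorylation detected by Delfia anti-phosphoserine antibody. Activity = % of basal control at 30 μM compound relative to that of 30 μM AMP.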

| activity: Ratio between the % of control (basal activity) of compound of formula (I) at 30 μM and the % of control (basal activity) of AMP at 30 μM [2] | SMILES | reduction of blood glucose [1] | Activity (table III): Concentration of compound (I) for a glucose uptake equal or higher to glucose uptake induced by insulin (170 nM) (H-2 Kb cells) |
| --- | --- | --- | --- |
|  | NC(=O)c1ncn([C@@H]2O[C@H](CO)[C@@H](O)[C@H]2O)c1N [AICAR] | 35% |  |
| 107% | O=c1[nH]c2sc(Cl)c(-c3ccccc3)c2c(O)c1-c1ccccc1 [Compound 162] |  | ** (^++ or **concentration of compound (I) ≦10 micro Molar) |
| 187% | COc1ccc(-c2c(O)c3c(-c4ccc(F)cc4O)csc3[nH]c2=O)cc1 [Compound 191] |  | + (^+ or *concentration of compound (I) >10 micro Molar) |
| 192% | Cc1ccc(-c2c(O)c3c(-c4ccc5ccccc5c4O)c(Cl)sc3[nH]c2=O)cc1 [Compound 186] |  | ++ (^++ or **concentration of compound (I) ≦10 micro Molar) |
| 183% | Cc1ccc(-c2c(O)c3c(-c4ccc(F)cc4O)csc3[nH]c2=O)cc1 [Compound 188] |  | + (^+ or *concentration of compound (I) >10 micro Molar) |
| 129% | O=c1[nH]c2sc(Cl)c(-c3ccc4ccccc4c3)c2c(O)c1-c1ccccc1 [Compound 137] |  | * (^+ or *concentration of compound (I) >10 micro Molar) |
| 114% | O=c1[nH]c2sc(Cl)c(-c3ccc(O)cc3)c2c(O)c1-c1ccccc1 [Compound 138] |  | ** (^++ or **concentration of compound (I) ≦10 micro Molar) |
| 284% | O=c1[nH]c2sc(Cl)c(-c3ccc4ccccc4c3O)c2c(O)c1-c1ccc(F)cc1 [Compound 185] |  | ++ (^++ or **concentration of compound (I) ≦10 micro Molar) |
| 202% | COc1cccc(-c2c(O)c3c(-c4ccccc4)csc3[nH]c2=O)c1 [Compound 23] |  | * (^+ or *concentration of compound (I) >10 micro Molar) |
| 139% | O=c1[nH]c2sc(Cl)c(-c3cc(F)c(F)cc3O)c2c(O)c1-c1ccccc1 [Compound 193] |  | + (^+ or *concentration of compound (I) >10 micro Molar) |
| 297% | CCc1ccc(-c2c(Cl)sc3[nH]c(=O)c(-c4ccccc4)c(O)c23)c(O)c1 [Compound 209] |  | ++ (^++ or **concentration of compound (I) ≦10 micro Molar) |
| 103% | O=c1[nH]c2sc(Cl)c(-c3ccc(F)c(F)c3)c2c(O)c1-c1ccccc1 [Compound 100] |  | ** (^++ or **concentration of compound (I) ≦10 micro Molar) |
| 147% | COc1ccc(-c2c(O)c3c(-c4ccccc4)c(Cl)sc3[nH]c2=O)cc1 [Compound 157] |  | ** (^++ or **concentration of compound (I) ≦10 micro Molar) |
| 114% | COc1ccc(-c2c(Cl)sc3[nH]c(=O)c(-c4ccccc4)c(O)c23)cc1 [Compound 139] |  | ** (^++ or **concentration of compound (I) ≦10 micro Molar) |
